Assay results taken from patent publication US11576922B2, “CD73 inhibitors” (ORIC Pharmaceuticals, Inc., priority 2017, dated 2023).
Like-named read-outs stand apart in the source and are kept apart here.

Biological target: T1, CD73 (Homo sapiens, UniProt P21589)
T1 sequence (P21589 27-549): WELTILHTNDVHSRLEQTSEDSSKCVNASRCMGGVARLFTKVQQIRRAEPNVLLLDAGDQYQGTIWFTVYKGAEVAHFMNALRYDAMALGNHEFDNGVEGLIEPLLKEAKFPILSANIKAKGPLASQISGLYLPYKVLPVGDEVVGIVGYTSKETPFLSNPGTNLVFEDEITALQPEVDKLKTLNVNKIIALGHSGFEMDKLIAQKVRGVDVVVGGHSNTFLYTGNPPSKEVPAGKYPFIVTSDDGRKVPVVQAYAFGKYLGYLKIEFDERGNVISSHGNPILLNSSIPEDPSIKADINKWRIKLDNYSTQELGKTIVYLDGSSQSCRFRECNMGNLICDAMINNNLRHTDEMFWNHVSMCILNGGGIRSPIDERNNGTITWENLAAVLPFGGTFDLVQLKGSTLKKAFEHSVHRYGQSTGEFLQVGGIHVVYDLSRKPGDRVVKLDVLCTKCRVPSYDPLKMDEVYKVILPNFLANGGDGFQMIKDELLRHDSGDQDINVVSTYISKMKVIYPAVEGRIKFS
Assay: Example A1: Biochemical Assay (CD73 inhibition, Malachite Green detection of AMP hydrolysis)
Conditions: AMP 15 μM, Tris-HCl pH 7.4, Malachite Green, absorbance 620 nm
Protocol: Example A1: Biochemical Assay
Assay Reaction Conditions
• Assay Volume: 70 μl • Reaction Volume: 50 μl • CD73: 0.3208 nM • AMP: 15 μM • Assay Buffer: 2 5 mM Tris-HCL, pH 7.4, 0.01% Brij-35, 0.01% BSA, 5 mM MgCl2 Assay Procedure:
Made dose titration of testing compounds in assay buffer, 10 points ½ log titrations in duplicates starting at 100 μM.
Added 25 μl of CD73 to each well for a final concentration of […].
Incubated at RT for 15 min.
Added 25 μl of AMP to each well for a final concentration of 15 μM.
Incubated at RT for 10 min.
Added 10 μl of Malachite Green Reagent A, incubate at RT for 10 min.
Added 10 μl of Malachite Green Reagent B, incubate at RT for 45 min.
Read the Absorbance on Envision plate reader using excitation filter: Cy5 […].
The ability of the compounds disclosed herein to inhibit CD73 activity was quantified and the respective IC50 values were determined. Table 1 provides the biochemical IC50 values of compounds disclosed herein.

[1] = CD73 0.3208 nM, read-out: Biochemical IC50
[2] = Biochemical IC50, CD73 0.3208 nM

| SMILES | IC50 [1] [nM] | IC50 [2] [nM] |
| --- | --- | --- |
| COP(=O)(CP(=O)(O)O)OC[C@H]1O[C@@H](n2nnc3c(N(C)[C@H]4CCc5ccccc54)nc(Cl)nc32)[C@H](O)[C@@H]1O (stereo partly drawn) [Example 24, (((((2R,3S,4R,5R)-5-(5-Chloro-7-(((S)-2,3-dihydro-1H-inden-1-yl)(methyl)amino)-3H-[1,2,3]triazolo[4,5-d]pyrimidin-3-yl)-3,4-dihydroxytetrahydrofuran-2-yl)methoxy)(methoxy)phosphoryl)methyl)phosphonic acid] | < 100 | – |
| CCOP(=O)(CP(=O)(O)O)OC[C@H]1O[C@@H](n2nnc3c(NCc4ccccc4Cl)nc(Cl)nc32)[C@H](O)[C@@H]1O (stereo partly drawn) [Example 25, (((((2R,3S,4R,5R)-5-(5-chloro-7-((2-chlorobenzyl)amino)-3H-[1,2,3]triazolo[4,5-d]pyrimidin-3-yl)-3,4-dihydroxytetrahydrofuran-2-yl)methoxy)(ethoxy)phosphoryl)methyl) phosphonic acid] | 100 to 1000 | – |
| COP(=O)(CP(=O)(O)O)OC[C@H]1O[C@@H](n2nnc3c(NCc4ccccc4Cl)nc(Cl)nc32)[C@H](O)[C@@H]1O (stereo partly drawn) [Example 26, (((((2R,3S,4R,5R)-5-(5-chloro-7-((2-chlorobenzyl)amino)-3H-[1,2,3]triazolo[4,5-d]pyrimidin-3-yl)-3,4-dihydroxytetrahydrofuran-2-yl)methoxy)(methoxy)phosphoryl)methyl) phosphonic acid] | 100 to 1000 | – |
| CO[P@](=O)(CP(=O)(O)O)OC[C@H]1O[C@@H](n2nnc3c(NCc4ccccc4Cl)nc(Cl)nc32)[C@H](O)[C@@H]1O [Example 27, (((R)-(((2R,3S,4R,5R)-5-(5-Chloro-7-((2-chlorobenzyl)amino)-3H-[1,2,3]triazolo[4,5-d]pyrimidin-3-yl)-3,4-dihydroxytetrahydrofuran-2-yl)methoxy)(methoxy)phosphoryl)methyl)phosphonic acid] | 100 to 1000 | – |
| CO[P@@](=O)(CP(=O)(O)O)OC[C@H]1O[C@@H](n2nnc3c(NCc4ccccc4Cl)nc(Cl)nc32)[C@H](O)[C@@H]1O [Example 28, (((S)-(((2R,3S,4R,5R)-5-(5-chloro-7-((2-chlorobenzyl)amino)-3H-[1,2,3]triazolo[4,5-d]pyrimidin-3-yl)-3,4-dihydroxytetrahydrofuran-2-yl)methoxy)(methoxy)phosphoryl)methyl)phosphonic acid] | 100 to 1000 | – |
| O=P(O)(O)C[P@](=O)(OC[C@H]1O[C@@H](n2nnc3c(NCc4ccccc4Cl)nc(Cl)nc32)[C@H](O)[C@@H]1O)Oc1ccccc1 [Example 32, (((S)-(((2R,3S,4R,5R)-5-(5-chloro-7-((2-chlorobenzyl)amino)-3H-[1,2,3]triazolo[4,5-d]pyrimidin-3-yl)-3,4-dihydroxytetrahydrofuran-2-yl)methoxy)(phenoxy)phosphoryl)methyl) phosphonic acid] | – | > 1000 |
| O=P(O)(O)C[P@@](=O)(OC[C@H]1O[C@@H](n2nnc3c(NCc4ccccc4Cl)nc(Cl)nc32)[C@H](O)[C@@H]1O)Oc1ccccc1 [Example 33, (((R)-(((2R,3S,4R,5R)-5-(5-chloro-7-((2-chlorobenzyl)amino)-3H-[1,2,3]triazolo[4,5-d]pyrimidin-3-yl)-3,4-dihydroxytetrahydrofuran-2-yl)methoxy)(phenoxy)phosphoryl)methyl) phosphonic acid] | – | 100 to 1000 |
| COP(=O)(CP(=O)(O)O)OC[C@H]1OC(n2nnc3c(NC4CCc5ccccc54)nc(Cl)nc32)[C@H](O)[C@@H]1O (stereo partly drawn) [Example 34, (((((2R,3S,4R,5S)-5-(5-chloro-7-(((S)-2,3-dihydro-1H-inden-1-yl)amino)-3H-[1,2,3]triazolo[4,5-d]pyrimidin-3-yl)-3,4-dihydroxytetrahydrofuran-2-yl)methoxy)(methoxy)phosphoryl)methyl) phosphonic acid] | 100 to 1000 | – |
| COP(=O)(CP(=O)(O)O)OC[C@H]1O[C@@H](n2ncc3c(N(C)C4CCc5ccccc54)nc(Cl)nc32)[C@H](O)[C@@H]1O (stereo partly drawn) [Example 39, (((((2R,3S,4R,5R)-5-(6-Chloro-4-(((R)-2,3-dihydro-1H-inden-1-yl)(methyl)amino)-1H-pyrazolo[3,4-d]pyrimidin-1-yl)-3,4-dihydroxytetrahydrofuran-2-yl)methoxy)(methoxy)phosphoryl)methyl)phosphonic acid] | < 100 | – |

Second part, led by results:

| IC50 [1] [nM] | SMILES | IC50 [2] [nM] |
| --- | --- | --- |
| < 100 | CN(c1nc(Cl)nc2c1nnn2[C@@H]1O[C@H](COP(=O)(O)CP(=O)(O)O)[C@@H](O)[C@H]1O)[C@H]1CCc2ccccc21 [Example 18, (((((2R,3S,4R,5R)-5-(5-chloro-7-(((S)-2,3-dihydro-1H-inden-1-yl)(methyl)amino)-3H-[1,2,3]triazolo[4,5-d]pyrimidin-3-yl)-3,4-dihydroxytetrahydrofuran-2-yl)methoxy)(hydroxy)phosphoryl)methyl) phosphonic acid] | – |
| < 100 | CN(c1nc(Cl)nc2c1nnn2[C@@H]1O[C@H](COP(=O)(O)CP(=O)(O)O)[C@@H](O)[C@H]1O)[C@@H]1CCc2ccccc21 [Example 19, (((((2R,3S,4R,5R)-5-(5-chloro-7-(((R)-2,3-dihydro-1H-inden-1-yl)(methyl)amino)-3H-[1,2,3]triazolo[4,5-d]pyrimidin-3-yl)-3,4-dihydroxytetrahydrofuran-2-yl)methoxy)(hydroxy)phosphoryl)methyl) phosphonic acid] | – |
| < 100 | O=P(O)(O)CP(=O)(O)OC[C@H]1O[C@@H](n2nnc3c(N[C@H]4CCc5ccccc54)nc(Cl)nc32)[C@H](O)[C@@H]1O [Example 20, (((((2R,3S,4R,5R)-5-(5-chloro-7-(((S)-2,3-dihydro-1H-inden-1-yl)amino)-3H-[1,2,3]triazolo[4,5-d]pyrimidin-3-yl)-3,4-dihydroxytetrahydrofuran-2-yl)methoxy)(hydroxy)phosphoryl)methyl) phosphonic acid] | – |
| < 100 | CN(Cc1ccccc1Cl)c1nc(Cl)nc2c1nnn2[C@@H]1C[C@H](COP(=O)(O)CP(=O)(O)O)[C@@H](O)[C@H]1O [Example 21, (((((1R,2R,3S,4R)-4-(5-chloro-7-((2-chlorobenzyl)(methyl)amino)-3H-[1,2,3]triazolo[4,5-d]pyrimidin-3-yl)-2,3-dihydroxycyclopentyl)methoxy)(hydroxy)phosphoryl)methyl)phosphonic acid] | – |
| 100 to 1000 | CN(Cc1ccccc1)c1nc(Cl)nc2c1nnn2[C@@H]1O[C@H](COP(=O)(O)CP(=O)(O)O)C[C@H]1O [Example 22, (((((2S,4R,5R)-5-(7-(benzyl(methyl)amino)-5-chloro-3H-[1,2,3]triazolo[4,5-d]pyrimidin-3-yl)-4-hydroxytetrahydrofuran-2-yl)methoxy)(hydroxy)phosphoryl)methyl)phosphonic acid] | – |
| < 100 | O=P(O)(O)CP(=O)(O)OC[C@@H]1C[C@@H](O)[C@H](n2nnc3c(NCc4ccccc4Cl)nc(Cl)nc32)O1 [Example 23, (((((2S,4R,5R)-5-(5-chloro-7-((2-chlorobenzyl)amino)-3H-[1,2,3]triazolo[4,5-d]pyrimidin-3-yl)-4-hydroxytetrahydrofuran-2-yl)methoxy)(hydroxy)phosphoryl)methyl)phosphonic acid] | – |
| < 100 | O=P(O)(O)CP(=O)(OCc1ccccc1)OC[C@H]1O[C@@H](n2nnc3c(NCc4ccccc4Cl)nc(Cl)nc32)[C@H](O)[C@@H]1O (stereo partly drawn) [Example 29, (((benzyloxy)(((2R,3S,4R,5R)-5-(5-chloro-7-((2-chlorobenzyl)amino)-3H-[1,2,3]triazolo[4,5-d]pyrimidin-3-yl)-3,4-dihydroxytetrahydrofuran-2-yl)methoxy)phosphoryl)methyl)phosphonic acid] | – |
| < 100 | O=P(O)(O)CP(=O)(OCC1CC1)OC[C@H]1O[C@@H](n2nnc3c(NCc4ccccc4Cl)nc(Cl)nc32)[C@H](O)[C@@H]1O (stereo partly drawn) [Example 30, (((((2R,3S,4R,5R)-5-(5-chloro-7-((2-chlorobenzyl)amino)-3H-[1,2,3]triazolo[4,5-d]pyrimidin-3-yl)-3,4-dihydroxytetrahydrofuran-2-yl)methoxy) (cyclopropylmethoxy)phosphoryl)methyl) phosphonic acid] | – |
| < 100 | CN(c1nc(Cl)nc2c1cnn2[C@@H]1O[C@H](COP(=O)(O)CP(=O)(O)O)[C@@H](O)[C@H]1O)[C@@H]1CCc2ccccc21 [Example 38, (((((2R,3S,4R,5R)-5-(6-chloro-4-(((R)-2,3-dihydro-1H-inden-1-yl)(methyl)amino)-1H-pyrazolo[3,4-d]pyrimidin-1-yl)-3,4-dihydroxytetrahydrofuran-2-yl)methoxy)(hydroxy)phosphoryl)methyl)phosphonic acid] | – |
